Laboratory results from ChEMBL document CHEMBL1777770, “Design, synthesis, inhibitory activity, and binding mode study of novel DNA methyltransferase 1 inhibitors” (Bioorg Med Chem Lett, 2010).
Activity calls are given as the source filed them. The calls are words filed in the database; no cut-off is given here.

How the values were obtained:
[1] = molecular target: DNA (cytosine-5)-methyltransferase 1 (Homo sapiens) (UniProt P26358); experiment: Inhibition of human DNA methyltransferase using S-adenosyl-L-methionine substrate at 10 to 1000 uM measured after 60 mins
DNA (cytosine-5)-methyltransferase 1 (Homo sapiens), sequence (P26358 whole entry): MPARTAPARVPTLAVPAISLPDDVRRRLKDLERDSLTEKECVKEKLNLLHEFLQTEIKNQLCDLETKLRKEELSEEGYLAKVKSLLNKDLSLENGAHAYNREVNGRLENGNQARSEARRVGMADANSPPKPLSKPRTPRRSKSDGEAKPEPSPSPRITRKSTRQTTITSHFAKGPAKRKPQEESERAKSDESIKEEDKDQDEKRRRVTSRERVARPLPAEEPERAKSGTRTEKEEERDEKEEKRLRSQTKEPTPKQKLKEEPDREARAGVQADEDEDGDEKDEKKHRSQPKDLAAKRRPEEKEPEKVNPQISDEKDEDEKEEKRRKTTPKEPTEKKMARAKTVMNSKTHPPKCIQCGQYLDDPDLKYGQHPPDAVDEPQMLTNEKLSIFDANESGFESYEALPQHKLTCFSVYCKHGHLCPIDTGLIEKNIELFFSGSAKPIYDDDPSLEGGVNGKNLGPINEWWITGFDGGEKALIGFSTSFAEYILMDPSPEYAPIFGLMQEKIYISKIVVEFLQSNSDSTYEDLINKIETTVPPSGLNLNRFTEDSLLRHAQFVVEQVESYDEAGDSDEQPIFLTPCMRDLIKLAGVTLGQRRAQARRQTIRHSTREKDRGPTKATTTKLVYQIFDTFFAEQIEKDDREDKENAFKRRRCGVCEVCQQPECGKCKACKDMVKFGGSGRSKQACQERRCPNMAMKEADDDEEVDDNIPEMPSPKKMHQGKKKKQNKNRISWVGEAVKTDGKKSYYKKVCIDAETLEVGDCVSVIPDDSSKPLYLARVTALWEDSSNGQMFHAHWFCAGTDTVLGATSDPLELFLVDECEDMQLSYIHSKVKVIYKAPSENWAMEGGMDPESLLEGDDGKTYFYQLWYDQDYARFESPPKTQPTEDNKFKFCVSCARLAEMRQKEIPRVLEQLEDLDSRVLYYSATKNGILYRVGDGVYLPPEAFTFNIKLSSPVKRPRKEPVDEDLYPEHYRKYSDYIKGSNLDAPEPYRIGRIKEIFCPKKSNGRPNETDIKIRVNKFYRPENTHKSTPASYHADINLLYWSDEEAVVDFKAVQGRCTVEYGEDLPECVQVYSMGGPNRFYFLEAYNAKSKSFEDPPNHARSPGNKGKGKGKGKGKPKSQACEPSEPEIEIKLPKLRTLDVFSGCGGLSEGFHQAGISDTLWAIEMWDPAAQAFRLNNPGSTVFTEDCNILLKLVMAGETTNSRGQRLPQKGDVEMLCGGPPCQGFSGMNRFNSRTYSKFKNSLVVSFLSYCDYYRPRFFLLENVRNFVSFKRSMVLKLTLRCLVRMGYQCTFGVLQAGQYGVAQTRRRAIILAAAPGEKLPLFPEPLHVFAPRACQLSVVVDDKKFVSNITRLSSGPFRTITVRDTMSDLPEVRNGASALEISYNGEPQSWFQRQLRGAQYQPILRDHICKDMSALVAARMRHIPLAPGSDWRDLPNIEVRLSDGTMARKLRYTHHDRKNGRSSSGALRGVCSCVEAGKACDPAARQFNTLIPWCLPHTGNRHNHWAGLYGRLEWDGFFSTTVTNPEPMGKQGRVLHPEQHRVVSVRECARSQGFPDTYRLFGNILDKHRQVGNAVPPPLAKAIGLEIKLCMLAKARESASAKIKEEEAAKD

[2] = molecular target: DNA (cytosine-5)-methyltransferase 1 (Homo sapiens) (UniProt P26358); experiment: Inhibition of human DNA methyltransferase using S-adenosyl-L-methionine substrate at 10 uM measured after 60 mins
[3] = molecular target: DNA (cytosine-5)-methyltransferase 1 (Homo sapiens) (UniProt P26358); experiment: Inhibition of human DNA methyltransferase using S-adenosyl-L-methionine substrate at 1000 uM measured after 60 mins

Row | inhibition [1] | inhibition [2] | inhibition [3] | SMILES
1 | Active | – | – | CC1=C(C)C(=O)N([C@@H](Cc2c[nH]c3ccccc23)C(=O)O)C1=O
2 | Active | – | – | O=C(O)[C@H](Cc1c[nH]c2ccccc12)N1C(=O)C=C(c2ccccc2)C1=O
3 | Active | 60% | – | O=C(O)[C@H](Cc1c[nH]c2ccccc12)N1C(=O)C=CC1=O
4 | inactive | – | – | O=C(O)[C@H](Cc1c[nH]c2ccccc12)N1C(=O)CCC1=O
5 | – | – | 34% | O=C(O)[C@H](Cc1c[nH]c2ccccc12)N1C(=O)c2ccccc2C1=O
6 | Active | – | – | CC1=CC(=O)N([C@@H](Cc2c[nH]c3ccccc23)C(=O)O)C1=O
